Test results: patent publication US20260250318A1, “COMPOSITIONS AND METHODS FOR CROSSING THE BLOOD BRAIN BARRIER” (VOYAGER THERAPEUTICS, INC., priority 2022, published 2026)

Experiments:
[1] = system: brains, heart, liver, muscle, and DRG of the NHPs; experiment: Maturation of TTM-001 and TTM-002 capsids, NGS enrichment in NHP tissues; format: in vivo; conditions: relative to AAV9 control
Procedure, shortened: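 Variants carry mutations within and flanking the loop IV peptide insert: positions 450–466 were triplet-randomized, while positions 449–466 received low-frequency point mutations. The combined pool went into two NHPs, and each peptide was scored by NGS enrichment ratio against AAV9.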

brain = experiment: Matured TTM-001 and TTM-002 variants, NGS enrichment in mouse brain; format: in vivo, mice; conditions: relative to AAV9 control
[2] = NGS fold-enrichment, DRG of NHPs
[3] = NGS fold-enrichment, RNA, brain of NHPs
[4] = NGS fold-enrichment, heart of NHPs
[5] = NGS fold-enrichment, liver DNA of NHPs
[6] = NGS fold-enrichment, liver RNA of NHPs
[7] = NGS fold-enrichment, muscle of NHPs
[8] = NGS fold-enrichment, brain of mice
[9] = NGS fold-enrichment of matured AAV capsid variants, NHP brain, RNA
[10] = NGS fold-enrichment of RNA, NHP brain
[11] = NGS fold-enrichment, NHP liver DNA
[12] = NGS fold-enrichment, NHP liver RNA
[13] = NGS fold-enrichment, NHP muscle
[14] = NGS fold-enrichment, mouse brain

Row | Sequence | Fold Enrichment relative to AAV9, DRG (NHP) [1, 2] [fold] | Fold Enrichment relative to AAV9, Brain (NHP) [1, 3] [fold] | Fold Enrichment relative to AAV9, Heart (NHP) [1, 4] [fold] | Fold Enrichment relative to AAV9, Liver DNA (NHP) [1, 5] [fold] | Fold Enrichment relative to AAV9, Liver RNA (NHP) [1, 6] [fold] | Fold Enrichment relative to AAV9, Muscle (NHP) [1, 7] [fold] | Fold Enrichment relative to AAV9, Brain (Mouse) (brain; [8]) [fold] | Fold Enrichment relative to AAV9, Brain (NHP) [1, 9] [fold] | Fold Enrichment relative to AAV9, DRG (NHP) ([1]; NHP DRG) [fold] | Fold Enrichment relative to AAV9, Heart (NHP) ([1]; NHP heart) [fold] | Fold Enrichment relative to AAV9, Liver DNA (NHP) ([1]; NHP liver, DNA) [fold] | Fold Enrichment relative to AAV9, Liver RNA (NHP) ([1]; NHP liver, RNA) [fold] | Fold Enrichment relative to AAV9, Muscle (NHP) ([1]; NHP muscle) [fold] | Fold Enrichment relative to AAV9, Brain (Mouse) (brain; mouse brain) [fold] | other results
1 | KTINGSGSPHSKAQDRPT | 0.132 | 70.831 | 0.006 | 0.379 | 0.039 | 0.000 | 66.800 | – | – | – | – | – | – | – | –
2 | KTINGSGSPHSKAQDRQS | – | – | – | – | – | – | – | 55.137 | 1.146 | 0.016 | 0.086 | 0.644 | 0.106 | 55.701 | –
3 | KTINGSGSPHSKAQERPT | 0.000 | 63.460 | 0.011 | 0.173 | 0.810 | 0.000 | 57.506 | – | – | – | – | – | – | – | –
4 | KTINGSGSPHSKAQERST | – | – | – | – | – | – | – | 58.021 | 0.000 | 0.011 | 0.409 | 0.829 | 0.005 | 87.656 | –
5 | KTINGSGSPHSKAQFMCT | – | – | – | – | – | – | – | 55.916 | 0.000 | 0.000 | 0.448 | 0.078 | 0.000 | 81.959 | –
6 | KTINGSGSPHSKAQFPST | 0.000 | 75.677 | 0.004 | 0.127 | 0.849 | 0.000 | 119.712 | – | – | – | – | – | – | – | Fold Enrichment relative to AAV9, Brain (NHP) [1, 10]: 75.677 fold; Fold Enrichment relative to AAV9, DRG (NHP) ([1]; NGS fold-enrichment, NHP DRG): 0.000 fold; Fold Enrichment relative to AAV9, Heart (NHP) ([1]; NGS fold-enrichment, NHP heart): 0.004 fold; Fold Enrichment relative to AAV9, Liver DNA (NHP) [1, 11]: 0.127 fold; Fold Enrichment relative to AAV9, Liver RNA (NHP) [1, 12]: 0.849 fold; Fold Enrichment relative to AAV9, Muscle (NHP) [1, 13]: 0.000 fold; Fold Enrichment relative to AAV9, Brain (Mouse) (brain; [14]): 119.712 fold
7 | KTINGSGSPHSKAQGAIT | – | – | – | – | – | – | – | 57.627 | 0.000 | 0.000 | 0.161 | 0.594 | 0.000 | 95.696 | –
8 | KTINGSGSPHSKAQGHHT | – | – | – | – | – | – | – | 56.559 | 0.000 | 0.000 | 0.117 | 0.632 | 0.000 | 71.050 | –
9 | KTINGSGSPHSKAQGILT | – | – | – | – | – | – | – | 58.418 | 0.000 | 0.005 | 0.192 | 0.569 | 0.010 | 102.631 | –
10 | KTINGSGSPHSKAQGIRT | 0.041 | 61.952 | 0.000 | 0.502 | 0.897 | 0.012 | 155.013 | – | – | – | – | – | – | – | –
11 | KTINGSGSPHSKAQGQQA | 0.000 | 64.128 | 0.185 | 0.195 | 0.063 | 0.000 | 64.116 | – | – | – | – | – | – | – | –
12 | KTINGSGSPHSKAQGSLT | – | – | – | – | – | – | – | 54.717 | 0.000 | 0.006 | 0.298 | 0.480 | 0.013 | 142.786 | –
13 | KTINGSGSPHSKAQHGLT | – | – | – | – | – | – | – | 55.999 | 0.000 | 0.000 | 0.244 | 1.913 | 0.101 | 117.191 | –
14 | KTINGSGSPHSKAQHPST | 0.000 | 62.255 | 0.044 | 0.301 | 1.345 | 0.000 | 101.103 | – | – | – | – | – | – | – | –
15 | KTINGSGSPHSKAQHRIT | 0.105 | 76.849 | 0.499 | 0.214 | 1.424 | 0.170 | 127.000 | – | – | – | – | – | – | – | Fold Enrichment relative to AAV9, Brain (NHP) [1, 10]: 76.849 fold; Fold Enrichment relative to AAV9, DRG (NHP) ([1]; NGS fold-enrichment, NHP DRG): 0.105 fold; Fold Enrichment relative to AAV9, Heart (NHP) ([1]; NGS fold-enrichment, NHP heart): 0.499 fold; Fold Enrichment relative to AAV9, Liver DNA (NHP) [1, 11]: 0.214 fold; Fold Enrichment relative to AAV9, Liver RNA (NHP) [1, 12]: 1.424 fold; Fold Enrichment relative to AAV9, Muscle (NHP) [1, 13]: 0.170 fold; Fold Enrichment relative to AAV9, Brain (Mouse) (brain; [14]): 127.000 fold
16 | KTINGSGSPHSKAQIGHT | – | – | – | – | – | – | – | 57.769 | 0.024 | 0.000 | 0.154 | 0.281 | 0.000 | 99.262 | –
17 | KTINGSGSPHSKAQIGMT | – | – | – | – | – | – | – | 59.013 | 0.081 | 106.528 | 0.248 | 1.003 | 0.000 | 134.585 | –
18 | KTINGSGSPHSKAQIPPT | 0.000 | 61.258 | 0.000 | 0.115 | 0.758 | 0.000 | 87.661 | – | – | – | – | – | – | – | –
19 | KTINGSGSPHSKAQKFET | 0.000 | 75.788 | 0.000 | 0.093 | 0.108 | 0.028 | 65.588 | – | – | – | – | – | – | – | Fold Enrichment relative to AAV9, Brain (NHP) [1, 10]: 75.788 fold; Fold Enrichment relative to AAV9, DRG (NHP) ([1]; NGS fold-enrichment, NHP DRG): 0.000 fold; Fold Enrichment relative to AAV9, Heart (NHP) ([1]; NGS fold-enrichment, NHP heart): 0.000 fold; Fold Enrichment relative to AAV9, Liver DNA (NHP) [1, 11]: 0.093 fold; Fold Enrichment relative to AAV9, Liver RNA (NHP) [1, 12]: 0.108 fold; Fold Enrichment relative to AAV9, Muscle (NHP) [1, 13]: 0.028 fold; Fold Enrichment relative to AAV9, Brain (Mouse) (brain; [14]): 65.588 fold
20 | KTINGSGSPHSKAQKIST | – | – | – | – | – | – | – | 50.285 | 0.000 | 0.000 | 0.302 | 0.108 | 0.088 | 51.115 | –
21 | KTINGSGSPHSKAQKLNT | 0.073 | 67.782 | 0.092 | 0.201 | 1.232 | 0.000 | 68.637 | – | – | – | – | – | – | – | –
